Key:
Format in all cases: biochemical
BTK C481S = molecular target: T1, BTK C481S (Homo sapiens, UniProt Q06187, C481S); experiment: Kinase activity inhibition assay (HTRF TK Kit)
T1 construct: purchased Carna 08-547
Outline: (§1)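 Percent inhibition, derived from time-resolved FRET ratios (665/620 nm) relative to no-enzyme and DMSO wells, was fitted against log concentration to give IC50. Reactions contained kinase, substrate and ATP at room temperature, followed by 1 h detection.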

BTK T474I = molecular target: T2, BTK T474I (Homo sapiens, UniProt Q06187, T474I); experiment: Kinase activity inhibition assay (HTRF TK Kit)
T2 construct: purchased SignalChem B10-12HH
Outline: as §1

BTK kinase = molecular target: T3, BTK kinase (Homo sapiens, UniProt Q06187); experiment: Kinase activity inhibition assay (HTRF TK Kit)
T3 construct: purchased Invitrogen PV3587
Outline: as §1

EGFR = molecular target: T4, EGFR (Homo sapiens, UniProt P00533); experiment: Kinase activity inhibition assay (HTRF TK Kit), selectivity
T4 construct: purchased Carna 08-115
Outline: as §1

ITK = molecular target: T5, ITK (Homo sapiens, UniProt Q08881); experiment: as above
T5 construct: purchased Carna 08-181
T5 sequence (Q08881 1-620): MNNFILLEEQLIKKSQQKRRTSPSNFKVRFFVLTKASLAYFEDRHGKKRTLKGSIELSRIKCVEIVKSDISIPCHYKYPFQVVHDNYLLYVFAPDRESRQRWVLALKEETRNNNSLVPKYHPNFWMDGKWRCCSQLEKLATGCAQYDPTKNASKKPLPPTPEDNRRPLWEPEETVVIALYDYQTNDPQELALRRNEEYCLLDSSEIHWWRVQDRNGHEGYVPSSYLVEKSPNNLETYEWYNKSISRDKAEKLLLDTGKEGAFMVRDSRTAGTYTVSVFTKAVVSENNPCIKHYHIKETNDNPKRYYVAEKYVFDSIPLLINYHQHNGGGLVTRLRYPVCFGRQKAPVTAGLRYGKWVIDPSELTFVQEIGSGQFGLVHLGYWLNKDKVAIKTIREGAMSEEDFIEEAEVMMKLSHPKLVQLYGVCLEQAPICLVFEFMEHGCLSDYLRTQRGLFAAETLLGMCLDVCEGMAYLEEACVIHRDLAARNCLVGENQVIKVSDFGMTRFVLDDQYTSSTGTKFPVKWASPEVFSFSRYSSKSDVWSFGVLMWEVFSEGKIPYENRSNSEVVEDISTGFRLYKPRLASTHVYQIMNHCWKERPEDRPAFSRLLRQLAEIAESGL
Outline: as §1

TEC = molecular target: T6, TEC (Homo sapiens, UniProt P42680); experiment: as above
T6 construct: purchased Carna 08-182
T6 sequence (P42680 1-631): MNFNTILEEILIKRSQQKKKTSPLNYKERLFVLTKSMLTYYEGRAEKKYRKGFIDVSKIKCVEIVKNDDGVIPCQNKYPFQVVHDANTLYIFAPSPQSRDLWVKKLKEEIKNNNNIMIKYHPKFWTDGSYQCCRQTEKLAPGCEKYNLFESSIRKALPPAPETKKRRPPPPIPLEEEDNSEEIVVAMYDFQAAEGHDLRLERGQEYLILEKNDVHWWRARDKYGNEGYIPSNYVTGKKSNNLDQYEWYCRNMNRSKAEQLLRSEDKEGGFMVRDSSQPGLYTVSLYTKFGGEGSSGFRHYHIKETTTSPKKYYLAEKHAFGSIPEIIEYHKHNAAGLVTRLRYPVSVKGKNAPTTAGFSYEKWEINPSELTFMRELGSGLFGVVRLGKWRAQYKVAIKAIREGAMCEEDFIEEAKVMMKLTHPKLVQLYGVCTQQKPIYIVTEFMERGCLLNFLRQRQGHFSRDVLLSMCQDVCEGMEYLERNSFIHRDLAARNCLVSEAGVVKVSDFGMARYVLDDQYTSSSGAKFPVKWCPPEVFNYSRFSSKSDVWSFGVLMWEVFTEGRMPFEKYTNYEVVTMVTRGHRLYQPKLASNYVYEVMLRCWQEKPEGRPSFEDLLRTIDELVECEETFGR
Outline: as §1

T2 sequence (Q06187 whole entry T474I): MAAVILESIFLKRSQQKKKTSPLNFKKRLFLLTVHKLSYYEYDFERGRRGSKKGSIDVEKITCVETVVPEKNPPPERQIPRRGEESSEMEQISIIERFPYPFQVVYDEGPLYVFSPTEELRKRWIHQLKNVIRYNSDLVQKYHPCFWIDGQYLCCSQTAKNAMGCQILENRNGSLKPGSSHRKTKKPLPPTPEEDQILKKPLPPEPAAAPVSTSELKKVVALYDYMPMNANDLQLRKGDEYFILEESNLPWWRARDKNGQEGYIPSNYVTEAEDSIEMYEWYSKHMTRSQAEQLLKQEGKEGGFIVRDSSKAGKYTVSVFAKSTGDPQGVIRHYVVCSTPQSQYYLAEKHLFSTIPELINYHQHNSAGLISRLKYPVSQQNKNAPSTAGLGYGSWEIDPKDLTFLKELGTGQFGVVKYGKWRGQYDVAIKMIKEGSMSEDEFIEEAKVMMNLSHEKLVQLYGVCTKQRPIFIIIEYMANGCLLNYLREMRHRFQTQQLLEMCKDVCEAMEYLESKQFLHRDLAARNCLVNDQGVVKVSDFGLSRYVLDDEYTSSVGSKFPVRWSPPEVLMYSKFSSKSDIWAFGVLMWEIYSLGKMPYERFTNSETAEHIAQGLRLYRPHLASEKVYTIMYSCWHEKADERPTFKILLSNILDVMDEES
T4 sequence (P00533 669-1210 limits assumed): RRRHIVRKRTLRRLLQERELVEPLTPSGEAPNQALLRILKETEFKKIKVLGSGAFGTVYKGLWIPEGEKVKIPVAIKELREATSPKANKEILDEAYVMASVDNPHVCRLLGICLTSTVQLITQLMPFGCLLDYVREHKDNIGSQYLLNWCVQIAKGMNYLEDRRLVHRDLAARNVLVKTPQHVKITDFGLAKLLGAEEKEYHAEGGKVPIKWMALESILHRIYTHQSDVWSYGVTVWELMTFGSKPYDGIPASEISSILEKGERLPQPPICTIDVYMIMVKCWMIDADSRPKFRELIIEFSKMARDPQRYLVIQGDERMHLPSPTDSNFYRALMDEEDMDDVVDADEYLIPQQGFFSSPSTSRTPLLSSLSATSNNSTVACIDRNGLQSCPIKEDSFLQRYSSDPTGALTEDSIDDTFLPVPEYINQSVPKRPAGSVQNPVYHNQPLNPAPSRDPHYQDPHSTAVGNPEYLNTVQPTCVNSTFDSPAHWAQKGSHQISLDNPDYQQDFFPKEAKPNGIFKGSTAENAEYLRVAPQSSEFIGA
T3 sequence (Q06187 whole entry): as the sequence (Q06187 whole entry T474I) above, with I474T counted along it
T1 sequence (Q06187 whole entry C481S): as the sequence (Q06187 whole entry T474I) above, with I474T, C481S counted along it

Compound | IC50 (BTK C481S) [nM] | IC50 (BTK T474I) [nM] | IC50 (BTK kinase) [nM] | IC50 (EGFR) [nM] | IC50 (ITK) [nM] | IC50 (TEC) [nM]
COc1ccc(F)cc1C(=O)NCc1ccc(-c2ncc(-c3ccc(CN4CCOCC4)cn3)c3[nH]nc(N)c23)cc1 [Example 67, N-(4-(3-amino-7-(5-(morpholinomethyl)pyridin-2-yl)-1H-pyrazolo[4,3-c]pyridin-4-yl)benzyl)-5-fluoro-2-methoxybenzamide] | ≤ 1 | 50 to 500 | ≤ 1 | 5 to 50 | 50 to 500 | 5 to 50
COc1ccc(F)cc1C(=O)NCc1ccc(-c2ncc(-c3cccnc3)c3[nH]nc(N)c23)cc1 [Example 105, N-(4-(3-amino-7-(pyridin-3-yl)-1H-pyrazolo[4,3-c]pyridin-4-yl)benzyl)-5-fluoro-2-methoxybenzamide] | 50 to 500 | > 500 | 5 to 50 | > 500 | > 500 | > 500
COc1ccc(F)cc1C(=O)NCc1ccc(-c2ncc(-c3ccc4nccn4n3)c3[nH]nc(N)c23)cc1 [Example 51, N-(4-(3-amino-7-(imidazo[1,2-b]pyridazin-6-yl)-1H-pyrazolo[4,3-c]pyridin-4-yl)benzyl)-5-fluoro-2-methoxybenzamide] | ≤ 1 | 50 to 500 | 1 to 5 | 50 to 500 | > 500 | 5 to 50
COc1ccc(F)cc1C(=O)NCc1ccc(-c2ncc(-c3ccc(S(C)(=O)=O)cn3)c3[nH]nc(N)c23)cc1 [Example 35, N-(4-(3-amino-7-(5-(methylsulfonyl)pyridin-2-yl)-1H-pyrazolo[4,3-c]pyridin-4-yl)benzyl)-5-fluoro-2-methoxybenzamide] | ≤ 1 | 5 to 50 | ≤ 1 | 50 to 500 | 50 to 500 | 5 to 50
COc1ccc(F)cc1C(=O)NCc1ccc(-c2nc(C(C)C(F)(F)F)c(-c3ccn(C)n3)c3[nH]nc(N)c23)cc1 (single isomer, unassigned) [Example 6-2, N-(4-(3-amino-7-(1-methyl-1H-pyrazol-3-yl)-6-(1,1,1-trifluoropropan-2-yl)-1H-pyrazolo[4,3-c]pyridin-4-yl)benzyl)-5-fluoro-2-methoxybenzamide] | 1 to 5 | 5 to 50 | 1 to 5 | 50 to 500 | > 500 | 5 to 50
COc1ccc(F)cc1C(=O)NCc1ccc(-c2ncc(-c3cc(NC(=O)C4CC4)ccn3)c3[nH]nc(N)c23)cc1 [Example 80, N-(4-(3-amino-7-(4-(cyclopropaneformamido)pyridin-2-yl)-1H-pyrazolo[4,3-c]pyridin-4-yl)benzyl)-5-fluoro-2-methoxybenzamide] | 1 to 5 | 50 to 500 | 1 to 5 | 50 to 500 | > 500 | 5 to 50
COc1ccc(F)cc1C(=O)NCc1ccc(-c2ncc(-c3ccc(F)cn3)c3[nH]nc(N)c23)cc1 [Example 21, N-(4-(3-amino-7-(5-fluoropyridin-2-yl)-1H-pyrazolo[4,3-c]pyridin-4-yl)benzyl)-5-fluoro-2-methoxybenzamide] | 5 to 50 | 50 to 500 | 1 to 5 | > 500 | > 500 | 50 to 500
COc1ccc(F)cc1C(=O)NCc1ccc(-c2ncc(-c3ncccn3)c3[nH]nc(N)c23)cc1 [Example 17, N-(4-(3-amino-7-(pyrimidin-2-yl)-1H-pyrazolo[4,3-c]pyridin-4-yl)benzyl)-5-fluoro-2-methoxybenzamide] | 1 to 5 | 50 to 500 | 1 to 5 | > 500 | > 500 | 5 to 50
COc1ccc(F)cc1C(=O)NCc1ccc(-c2ncc(-c3cnccn3)c3[nH]nc(N)c23)cc1 [Example 18, N-(4-(3-amino-7-(pyrazin-2-yl)-1H-pyrazolo[4,3-c]pyridin-4-yl)benzyl)-5-fluoro-2-methoxybenzamide] | 1 to 5 | 50 to 500 | 5 to 50 | > 500 | > 500 | 50 to 500

— patent EP4741392A1, “1H-PYRAZOLO[4,3-C]PYRIDINE COMPOUND, AND COMPOSITION THEREOF AND USE THEREOF” (Shenzhen TargetRx Co., Ltd., priority 2023, dated 2025)
